# Experimental data taken from the Kinase Knowledgebase extract (Sharma et al. 2016).
# Molecular target: EGFR (UniProt P00533)
# Sequence (P00533 whole entry, looked up): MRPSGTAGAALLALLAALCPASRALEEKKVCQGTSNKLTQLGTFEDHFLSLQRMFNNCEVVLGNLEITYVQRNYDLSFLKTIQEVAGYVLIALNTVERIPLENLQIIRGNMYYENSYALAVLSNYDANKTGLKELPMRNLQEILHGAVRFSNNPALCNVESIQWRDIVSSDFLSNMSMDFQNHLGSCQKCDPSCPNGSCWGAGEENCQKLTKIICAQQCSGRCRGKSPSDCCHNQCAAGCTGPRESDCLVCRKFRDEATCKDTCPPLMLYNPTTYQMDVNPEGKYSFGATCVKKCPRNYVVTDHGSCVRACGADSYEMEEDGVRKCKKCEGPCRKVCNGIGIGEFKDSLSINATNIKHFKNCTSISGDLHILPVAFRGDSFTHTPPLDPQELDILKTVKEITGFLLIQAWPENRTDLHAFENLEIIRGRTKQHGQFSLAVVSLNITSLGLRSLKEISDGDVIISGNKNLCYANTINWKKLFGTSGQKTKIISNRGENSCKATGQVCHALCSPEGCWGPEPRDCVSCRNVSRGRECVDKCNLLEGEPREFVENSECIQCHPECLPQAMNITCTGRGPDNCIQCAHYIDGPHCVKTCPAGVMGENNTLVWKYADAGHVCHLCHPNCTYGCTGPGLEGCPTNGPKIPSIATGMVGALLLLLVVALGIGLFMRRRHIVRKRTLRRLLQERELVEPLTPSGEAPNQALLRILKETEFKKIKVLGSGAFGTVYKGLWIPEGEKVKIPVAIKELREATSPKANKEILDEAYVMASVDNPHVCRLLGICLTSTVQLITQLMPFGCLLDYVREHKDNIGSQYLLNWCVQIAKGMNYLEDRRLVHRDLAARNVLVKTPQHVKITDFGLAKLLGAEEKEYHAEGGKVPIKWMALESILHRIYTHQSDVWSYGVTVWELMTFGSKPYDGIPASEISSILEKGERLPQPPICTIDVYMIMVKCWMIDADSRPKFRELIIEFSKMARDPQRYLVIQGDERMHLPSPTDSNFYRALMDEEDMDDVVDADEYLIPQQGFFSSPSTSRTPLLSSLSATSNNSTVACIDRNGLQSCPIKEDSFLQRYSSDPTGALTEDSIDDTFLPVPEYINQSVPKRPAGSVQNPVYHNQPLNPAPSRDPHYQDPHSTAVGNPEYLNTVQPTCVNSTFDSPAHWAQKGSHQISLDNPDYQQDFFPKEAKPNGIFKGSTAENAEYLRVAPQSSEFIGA
row,SMILES,IC50 [nM]
1,COC(=O)CCC(=O)N1CCOC(COc2cc3ncnc(Nc4ccc(Cl)c(Cl)c4)c3cc2OC)C1 (stereo not drawn),< 50
2,COc1cc2c(Nc3ccc(Br)c(Cl)c3)ncnc2cc1O[C@H]1CO[C@@H]2[C@H]1OC[C@@H]2S(C)(=O)=O,< 50
3,COc1cc2c(Nc3cc(Cl)c(Br)cc3F)ncnc2cc1OC[C@@H]1CN2CCOC[C@H]2CO1,< 50
4,COc1cc2c(Nc3ccc(Cl)c(Cl)c3)ncnc2cc1OCC1CN2CCOCC2CO1 (stereo not drawn),< 50
5,COc1cc2c(Nc3ccc(Cl)c(Cl)c3)ncnc2cc1OCCC1CC2CCC(C1)N2C (stereo not drawn),< 50
6,CCN1CCCCC1c1nc(COc2cc3ncnc(Nc4ccc(Cl)c(Cl)c4)c3cc2OC)no1 (stereo not drawn),< 50
7,CCN1CCc2nc(COc3cc4ncnc(Nc5ccc(Cl)c(Cl)c5)c4cc3OC)sc2C1,< 50
8,COc1cc2c(Nc3ccc(Cl)c(Cl)c3)ncnc2cc1OCC1CN(C(=O)Cc2ccc(Cl)cc2)CCO1 (stereo not drawn),< 50
9,COc1cc2c(Nc3ccc(Cl)c(Cl)c3)ncnc2cc1OCC1CN(S(=O)(=O)Cc2ccccc2)CCO1 (stereo not drawn),< 50
10,CCN1CCN(CC)C(COc2cc3ncnc(Nc4ccc(Cl)c(Cl)c4)c3cc2OC)C1 (stereo not drawn),< 50
11,COc1cc2c(Nc3ccc(Cl)c(Cl)c3)ncnc2cc1OCc1nc([C@@H]2CCCN2C)no1,< 50
12,COc1cc2c(Nc3ccc(Cl)c(Cl)c3F)ncnc2cc1OC[C@@H]1CN2CCC[C@H]2C(=O)N1C,< 50
13,COc1cc2c(Nc3ccc(Cl)c(Cl)c3)ncnc2cc1OCC1CCCCC1,< 50
14,CCCCCN1CCOC(COc2cc3ncnc(Nc4ccc(Cl)c(Cl)c4)c3cc2OC)C1 (stereo not drawn),< 50
15,COc1cc2c(Nc3ccc(Cl)c(Cl)c3F)ncnc2cc1OC[C@@H]1CN(C)CC(=O)N1C,< 50
16,COc1cc2c(Nc3ccc(Cl)c(Cl)c3)ncnc2cc1OCc1noc(-c2ccccc2OC)n1,< 50
17,COc1cc2c(Nc3ccc(Br)c(Cl)c3F)ncnc2cc1OC[C@@H]1CN2CCOC[C@H]2CO1,< 50
18,COc1cc2c(Nc3ccc(Br)c(Cl)c3F)ncnc2cc1OC[C@@H]1CN(C)CC(=O)N1C,< 50
19,COc1cc2c(Nc3ccc(Cl)c(Cl)c3)ncnc2cc1OCC1CN(C(=O)c2cc(F)ccc2F)CCO1 (stereo not drawn),< 50
20,COC(=O)CCCCN1CCOC(COc2cc3ncnc(Nc4ccc(Cl)c(Cl)c4)c3cc2OC)C1 (stereo not drawn),< 50
21,COc1cc2c(Nc3ccc(Cl)cc3Cl)ncnc2cc1O[C@@H]1CO[C@@H]2[C@H]1OC[C@H]2F,< 50
22,COCCN1CCOC(COc2cc3ncnc(Nc4ccc(Cl)c(Cl)c4)c3cc2OC)C1 (stereo not drawn),< 50
23,COc1cc2c(Nc3ccc(Br)c(Cl)c3)ncnc2cc1O[C@H]1CO[C@H]2[C@@H]1OC[C@]2(O)C(F)(F)F,< 50
